Patent publication US20240400986A1, “MEMBRANE BOUND COMPOSITIONS AND METHODS RELATING TO SAME” (FLAGSHIP PIONEERING INNOVATIONS VII, LLC, priority 2021, published 2024)
Read-outs that look alike come from different tables or passages of the source.

Key:
[1] = system: neuronal cell line derived from human neuroblastoma
[2] = system: neuronal cell line derived from human neuroblastoma; assay: Small molecule compound screen of gigasome production in neuronal monocultures; conditions: for Number of Gigasomes Produced / Fold Change of Gigasomes Produced vs. DMSO: 24 hours
[3] = system: cardiomyocytic cell line derived from human ventricular heart tissue; assay: Small molecule compound screen of gigasome production in cardiomyocytic monocultures;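 also: gigasomes shed into the culture medium were imaged by confocal microscopy and counted as round particles lacking nuclear signal, extrapolated to the whole well, fold change is relative to DMSO vehicle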
Protocol: For the screening, a total of 100 randomly organized compounds (TargetMol) were divided in 5 groups. Each group included an untreated condition, a vehicular DMSO control, and a known high-gigasome producing condition to comparatively study gigasome production rates. As a cell death control group, 500 nM Staurosporine was added to induce apoptosis. Cultures were incubated for 24 hours under gigasome inducing conditions at concentrations ranging between 10 nM and 10,000 nM. […] The Zeiss ZEN Blue software was used to distribute imaging fields of view (positions) to create an unbiased imaging sample of a well. 5 images were taken using a Zeiss LSM 900 confocal microscope. […] The BioApps ZEN software package was used to perform cell nucleus segmentation and counting. After 24 hours, gigasomes were harvested from the cell culture media by gently removing from the top of each 96-well ⅔ of the total volume without disturbing the cell layer (containing the settled gigasomes) and by adding to each well the same amount of PBS containing 0.5 mM EDTA. The wells were washed twice gently, and the gigasome-containing media/0.5 mM EDTA PBS wash was transferred into the well of a 384-well glass bottom plate. Cells remaining in the 96-well plates were assessed for viability using CellTiter-Glo (Promega).
For gigasome analysis in 384-well plates, the Zeiss ZEN Blue software was used to distribute positions to create an unbiased imaging sample of a well. 6 images per well were taken using a Zeiss LSM 900 confocal microscope. […] A watershed binary segmentation step was performed to separate grouped objects. For each particle in the mask, characteristic parameters of the particle were calculated and saved. […] Particles of interest were identified by thresholding by area and circularity. […] Circularity, defined by the formula 4pi(area/perimeter^2, was set to be between 0.8, where a value of 1.0 is a perfect circle, and a value of 0 is a line. Gigasomes were identified from the particles of interest by thresholding by mean nuclear signal. The nuclear signal threshold was set using a value equal to one quarter of a threshold value calculated by the Li auto-threshold algorithm applied to the distribution of all particles of interest. Particles of interest with nuclear signal below this value were considered “negative” for nuclear material and were identified as gigasomes. A sampling factor was calculated to extrapolate the total quantity of a type of object (particles, particles of interest, gigasomes) in the well. The sampling factor was the percentage of the well's area that was imaged. […] In some experiments, the number of cells in the cell cultures were estimated with a cell counter. […] The normalized quantity or distribution of objects was described as a quantity or distribution of objects per 1000 cells.

[4] = Homo sapiens, 24 h, read-out: Fold Change of Gigasomes Produced vs. DMSO
[5] = Table 22, dose 10 nM, cardiomyocytes, 24 hours
[6] = Table 22, dose 1000 nM, cardiomyocytes, 24 hours
[7] = Table 22, dose 10000 nM, cardiomyocytes, 24 hours
[8] = neuronal cells, dose 10 nM, 24 hours
[9] = neuronal cells, dose 100 nM, 24 hours
[10] = neuronal cells, dose 1000 nM, 24 hours
[11] = neuronal cells, dose 10000 nM, 24 hours
[12] = Table 23 (down-regulators), dose 10 nM, cardiomyocytes
[13] = Table 23 (down-regulators), dose 100 nM, cardiomyocytes
[14] = Table 23 (down-regulators), dose 1000 nM, cardiomyocytes
[15] = Table 23 (down-regulators), dose 10000 nM, cardiomyocytes

C/C(=C\c1csc(C)n1)[C@@H]1C[C@@H]2O[C@]2(C)CCC[C@H](C)[C@H](O)[C@@H](C)C(=O)C(C)(C)[C@@H](O)CC(=O)N1 [Ixabepilone]
Viability ([1]; human, 24 h, 10 nM): 50-75% | fold induction at 0.01 µM [2, 4]: 2 to 3 | Number of Gigasomes Produced ([2]; neuronal cells, dose 10 nM): 65-75

COc1ccc(S(=O)(=O)N(CCO)c2ccccc2CN(C)C/C=C/c2ccc(Cl)cc2)cc1 [KN-93, reference compound]
Fold Change of Gigasomes Produced vs. DMSO [3, 5]: 1.25-1.5 | Number of Gigasomes Produced [3, 5]: 225-250 | Fold Change of Gigasomes Produced vs. DMSO [3, 6]: 1.25-1.5 | Number of Gigasomes Produced [3, 6]: 250-275 | Fold Change of Gigasomes Produced vs. DMSO [3, 7]: 1.5-1.75 | Number of Gigasomes Produced [3, 7]: 250-275

CC(C)(O)c1coc(S(=O)(=O)NC(=O)Nc2c3c(cc4c2CCC4)CCC3)c1 [MCC950 sodium]
Viability [1, 8]: 100% | Viability [1, 9]: >75% | Viability [1, 10]: 100% | Viability [1, 11]: 100% | fold induction at 0.01 µM [2, 4]: 1 to 1.25 | fold induction at 0.1 µM [2, 4]: 1 to 1.25 | fold induction at 1 µM [2, 4]: 0.5 to 0.75 | fold induction at 10 µM [2, 4]: 0.75 to 1 | Number of Gigasomes Produced ([2]; neuronal cells, dose 10 nM): 35-40 | Number of Gigasomes Produced ([2]; neuronal cells, dose 100 nM): 35-40 | Number of Gigasomes Produced ([2]; neuronal cells, dose 1000 nM): 20-25 | Number of Gigasomes Produced ([2]; neuronal cells, dose 10000 nM): 25-30

CCCCCCCCCCCCCC[N+](C)(C)C.[Br-] [MiTMAB, reference compound]
Viability [1, 11]: >75% | Fold Change of Gigasomes Produced vs. DMSO ([2]; neuronal cells, dose 10000 nM): 2.0-3.0 | Number of Gigasomes Produced ([2]; neuronal cells, dose 10000 nM): 55-65

CN[C@H](CC(=O)O)C(=O)O [NMDA, reference compound]
Viability [1, 8]: 100% | Viability [1, 9]: 100% | Viability [1, 10]: 100% | Viability [1, 11]: 100% | Fold Change of Gigasomes Produced vs. DMSO ([2]; neuronal cells, dose 10 nM): 0.75-1.0 | Number of Gigasomes Produced ([2]; neuronal cells, dose 10 nM): 30-35 | Fold Change of Gigasomes Produced vs. DMSO ([2]; neuronal cells, dose 100 nM): 0.75-1.0 | Number of Gigasomes Produced ([2]; neuronal cells, dose 100 nM): 30-35 | Fold Change of Gigasomes Produced vs. DMSO ([2]; neuronal cells, dose 1000 nM): 0.5-0.75 | Number of Gigasomes Produced ([2]; neuronal cells, dose 1000 nM): 20-25 | Fold Change of Gigasomes Produced vs. DMSO ([2]; neuronal cells, dose 10000 nM): 0.25-0.5 | Number of Gigasomes Produced ([2]; neuronal cells, dose 10000 nM): 15-20 | downregulation of gigasome production ([2]; neuronal cells, doses 10-10,000 nM, 24 h): dose-dependent downregulation

CCCCc1ccc(NC(C)=O)c(C)c1 [SMIP004]
Fold Change of Gigasomes Produced vs. DMSO ([2]; neuronal cells, dose 10 nM): >1.25 | Number of Gigasomes Produced ([2]; neuronal cells, dose 10 nM): >40 | Fold Change of Gigasomes Produced vs. DMSO ([2]; neuronal cells, dose 100 nM): 0.75-1.0 | Number of Gigasomes Produced ([2]; neuronal cells, dose 100 nM): 35-40 | Fold Change of Gigasomes Produced vs. DMSO ([2]; neuronal cells, dose 1000 nM): 0.75-1.0 | Number of Gigasomes Produced ([2]; neuronal cells, dose 1000 nM): 30-35 | Fold Change of Gigasomes Produced vs. DMSO ([2]; neuronal cells, dose 10000 nM): 0.75-1.0 | Number of Gigasomes Produced ([2]; neuronal cells, dose 10000 nM): 30-35 | Fold Change of Gigasomes Produced vs. DMSO [3, 6]: 1.0-1.25 | Number of Gigasomes Produced [3, 6]: 150-175 | Fold Change of Gigasomes Produced vs. DMSO [3, 7]: 1.25-1.5 | Number of Gigasomes Produced [3, 7]: 175-200

O=C(Nc1ccccc1-c1cn2c(CN3CCNCC3)csc2n1)c1cnc2ccccc2n1 [SRT 1720]
Fold Change of Gigasomes Produced vs. DMSO [3, 6]: 1.0-1.25 | Number of Gigasomes Produced [3, 6]: 150-175

NC(=O)C1CCCc2c1[nH]c1ccc(Cl)cc21 (stereo not shown) [Selisistat]
Fold Change of Gigasomes Produced vs. DMSO [3]: 1.25-1.5 | Number of Gigasomes Produced [3, 5]: 150-175

CCC(C)(C)C(=O)O[C@H]1C[C@@H](C)C=C2C=C[C@H](C)[C@H](CC[C@@H]3C[C@@H](O)CC(=O)O3)[C@H]21 [Simvastatin]
Number of Gigasomes Produced ([2]; neuronal cells, dose 100 nM): <35 | Number of Gigasomes Produced ([2]; neuronal cells, dose 1000 nM): 35-45 | Number of Gigasomes Produced ([2]; neuronal cells, dose 10000 nM): 45-55

Fc1ccc(CNc2ncnc3ccc(F)cc23)cc1 [Spautin-1]
Fold Change of Gigasomes Produced vs. DMSO [3, 12]: 0.75-1.0 | Number of Gigasomes Produced [3, 12]: 105-120 | Fold Change of Gigasomes Produced vs. DMSO [3, 13]: 0.75-1.0 | Number of Gigasomes Produced [3, 13]: 120-135 | Fold Change of Gigasomes Produced vs. DMSO [3, 14]: 0.5-0.75 | Number of Gigasomes Produced [3, 14]: 90-105 | Fold Change of Gigasomes Produced vs. DMSO [3, 15]: 0.5-0.75 | Number of Gigasomes Produced [3, 15]: 75-90

O=C(Oc1cccc(F)c1OC(=O)c1cccc(O)c1)c1cccc(O)c1 [WZB117, reference compound]
Fold Change of Gigasomes Produced vs. DMSO [3, 12]: 1.0-1.25 | Number of Gigasomes Produced [3, 12]: 120-135 | Fold Change of Gigasomes Produced vs. DMSO [3, 13]: 0.75-1.0 | Number of Gigasomes Produced [3, 13]: 105-120 | Fold Change of Gigasomes Produced vs. DMSO [3, 14]: 0.75-1.0 | Number of Gigasomes Produced [3, 14]: 105-120 | Fold Change of Gigasomes Produced vs. DMSO [3, 15]: 0.25-0.5 | Number of Gigasomes Produced [3, 15]: 35-50 | downregulation of gigasome production ([3]; cardiomyocytes, doses 10-10,000 nM, 24 h): dose-dependent downregulation
